{"source": "patent US20220081412A1", "about": "“QUINOLINYL-PYRAZINE-CARBOXAMIDE COMPOUNDS AND USES THEREOF” (The Regents of the University of Michigan, priority 2018, published 2022)", "system": "NCI60 cell lines", "experiment": "NCI60 cell line panel", "format": "cell-based, human", "description": "The Developmental Therapeutics Program (DTP) of NCI has evaluated more than 100,000 pure compounds and more than 34,000 crude extracts against the panel of human tumor cell lines. The resultant data are analyzed using a program called COMPARE, that rank the entire database of tested compounds in the order of the similarity of the responses. […] Thus, the NCI60 databases is highly useful to the cancer research community. Further experiments were conducted that tested some of the active compounds in a panel of NCI60 cell line to relate our compounds with some known inhibitors to have an idea of possible mechanism of action.\nIn order to understand the selectivity of these compounds in different cancer types, some of them were tested against a panel of 60 cell lines (Table XXXIX).", "data": [{"compound": "CCN(CC)CCCC(C)Nc1cnc(C(=O)Nc2ccc(Cl)c3cccnc23)cn1", "note": "(centres unmarked) [J9, N-(5-chloroquinolin-8-yl)-5-((5-(diethylamino)pentan-2-yl)amino)pyrazine-2-carboxamide]", "values": [{"measurement": "GIPRCNT: % Growth inhibition", "setting": "Breast Cancer, BT-549", "result": 80.08, "unit": "%"}, {"measurement": "GIPRCNT: % Growth inhibition", "setting": "Breast Cancer, HS 578T", "result": 51.41, "unit": "%"}, {"measurement": "GIPRCNT: % Growth inhibition", "setting": "Breast Cancer, MCF7", "result": "−2.145", "unit": "%"}, {"measurement": "GIPRCNT: % Growth inhibition", "setting": "Breast Cancer, MDA-MB-231/ATCC", "result": "−29.6765", "unit": "%"}, {"measurement": "GIPRCNT: % Growth inhibition", "setting": "Breast Cancer, MDA-MB-468", "result": "−28.0145", "unit": "%"}, {"measurement": "GIPRCNT: % Growth inhibition", "setting": "Breast Cancer, T-47D", "result": "−49.3289", "unit": "%"}, {"measurement": "GIPRCNT: % Growth inhibition", "setting": "CNS Cancer, SF-268", "result": 35.85, "unit": "%"}, {"measurement": "GIPRCNT: % Growth inhibition", "setting": "CNS Cancer, SF-295", "result": 63.03, "unit": "%"}, {"measurement": "GIPRCNT: % Growth inhibition", "setting": "CNS Cancer, SF-539", "result": "−73.563", "unit": "%"}, {"measurement": "GIPRCNT: % Growth inhibition", "setting": "CNS Cancer, SNB-19", "result": 49.65, "unit": "%"}, {"measurement": "GIPRCNT: % Growth inhibition", "setting": "CNS Cancer, SNB-75", "result": 41.7, "unit": "%"}, {"measurement": "GIPRCNT: % Growth inhibition", "setting": "CNS Cancer, U251", "result": "−35.3044", "unit": "%"}, {"measurement": "GIPRCNT: % Growth inhibition", "setting": "Colon Cancer, COLO 205", "result": "−66.6925", "unit": "%"}, {"measurement": "GIPRCNT: % Growth inhibition", "setting": "Colon Cancer, HCC-2998", "result": 32.59, "unit": "%"}, {"measurement": "GIPRCNT: % Growth inhibition", "setting": "Colon Cancer, HCT-15", "result": 3.732, "unit": "%"}, {"measurement": "GIPRCNT: % Growth inhibition", "setting": "Colon Cancer, HCT-116", "result": "−52.4351", "unit": "%"}, {"measurement": "GIPRCNT: % Growth inhibition", "setting": "Colon Cancer, HT29", "result": "−49.3651", "unit": "%"}, {"measurement": "GIPRCNT: % Growth inhibition", "setting": "Colon Cancer, KM12", "result": 30.3, "unit": "%"}, {"measurement": "GIPRCNT: % Growth inhibition", "setting": "Colon Cancer, SW-620", "result": 0.6189, "unit": "%"}, {"measurement": "GIPRCNT: % Growth inhibition", "setting": "Leukemia, CCRF-CEM", "result": 5.288, "unit": "%"}, {"measurement": "GIPRCNT: % Growth inhibition", "setting": "Leukemia, HL-60(TB)", "result": "−63.3005", "unit": "%"}, {"measurement": "GIPRCNT: % Growth inhibition", "setting": "Leukemia, K-562", "result": "−45.7589", "unit": "%"}, {"measurement": "GIPRCNT: % Growth inhibition", "setting": "Leukemia, MOLT-4", "result": 2.901, "unit": "%"}, {"measurement": "GIPRCNT: % Growth inhibition", "setting": "Leukemia, RPMI-8226", "result": 2.196, "unit": "%"}, {"measurement": "GIPRCNT: % Growth inhibition", "setting": "Leukemia, SR", "result": 1.416, "unit": "%"}, {"measurement": "GIPRCNT: % Growth inhibition", "setting": "Melanoma, LOX IMVI", "result": "−83.8894", "unit": "%"}, {"measurement": "GIPRCNT: % Growth inhibition", "setting": "Melanoma, M14", "result": "−73.1499", "unit": "%"}, {"measurement": "GIPRCNT: % Growth inhibition", "setting": "Melanoma, MALME-3M", "result": "−71.7698", "unit": "%"}, {"measurement": "GIPRCNT: % Growth inhibition", "setting": "Melanoma, MDA-MB-435", "result": "−57.8225", "unit": "%"}, {"measurement": "GIPRCNT: % Growth inhibition", "setting": "Melanoma, SK-MEL-2", "result": 57.84, "unit": "%"}, {"measurement": "GIPRCNT: % Growth inhibition", "setting": "Melanoma, SK-MEL-5", "result": "−3.699", "unit": "%"}, {"measurement": "GIPRCNT: % Growth inhibition", "setting": "Melanoma, UACC-62", "result": "−52.4398", "unit": "%"}, {"measurement": "GIPRCNT: % Growth inhibition", "setting": "Melanoma, UACC-257", "result": "−32.9601", "unit": "%"}, {"measurement": "GIPRCNT: % Growth inhibition", "setting": "Non-Small Cell Lung Cancer, A549/ATCC", "result": 23.43, "unit": "%"}, {"measurement": "GIPRCNT: % Growth inhibition", "setting": "Non-Small Cell Lung Cancer, EKVX", "result": 66.07, "unit": "%"}, {"measurement": "GIPRCNT: % Growth inhibition", "setting": "Non-Small Cell Lung Cancer, HOP-62", "result": 43.04, "unit": "%"}, {"measurement": "GIPRCNT: % Growth inhibition", "setting": "Non-Small Cell Lung Cancer, HOP-92", "result": 38.78, "unit": "%"}, {"measurement": "GIPRCNT: % Growth inhibition", "setting": "Non-Small Cell Lung Cancer, NCI-H23", "result": 80.43, "unit": "%"}, {"measurement": "GIPRCNT: % Growth inhibition", "setting": "Non-Small Cell Lung Cancer, NCI-H226", "result": 39.13, "unit": "%"}, {"measurement": "GIPRCNT: % Growth inhibition", "setting": "Non-Small Cell Lung Cancer, NCI-H322M", "result": 35.3, "unit": "%"}, {"measurement": "GIPRCNT: % Growth inhibition", "setting": "Non-Small Cell Lung Cancer, NCI-H460", "result": 3.469, "unit": "%"}, {"measurement": "GIPRCNT: % Growth inhibition", "setting": "Non-Small Cell Lung Cancer, NCI-H522", "result": 4.415, "unit": "%"}, {"measurement": "GIPRCNT: % Growth inhibition", "setting": "Ovarian Cancer, IGROV1", "result": 44.22, "unit": "%"}, {"measurement": "GIPRCNT: % Growth inhibition", "setting": "Ovarian Cancer, NCI/ADR-RES", "result": 52.19, "unit": "%"}, {"measurement": "GIPRCNT: % Growth inhibition", "setting": "Ovarian Cancer, OVCAR-3", "result": "−23.663", "unit": "%"}, {"measurement": "GIPRCNT: % Growth inhibition", "setting": "Ovarian Cancer, OVCAR-4", "result": 51.32, "unit": "%"}, {"measurement": "GIPRCNT: % Growth inhibition", "setting": "Ovarian Cancer, OVCAR-5", "result": 53.28, "unit": "%"}, {"measurement": "GIPRCNT: % Growth inhibition", "setting": "Ovarian Cancer, OVCAR-8", "result": 27.34, "unit": "%"}, {"measurement": "GIPRCNT: % Growth inhibition", "setting": "Ovarian Cancer, SK-OV-3", "result": 79.51, "unit": "%"}, {"measurement": "GIPRCNT: % Growth inhibition", "setting": "Prostate Cancer, DU-145", "result": 53.1, "unit": "%"}, {"measurement": "GIPRCNT: % Growth inhibition", "setting": "Prostate Cancer, PC-3", "result": 39.38, "unit": "%"}, {"measurement": "GIPRCNT: % Growth inhibition", "setting": "Renal Cancer, 786-0", "result": "−44.1831", "unit": "%"}, {"measurement": "GIPRCNT: % Growth inhibition", "setting": "Renal Cancer, A498", "result": 53.99, "unit": "%"}, {"measurement": "GIPRCNT: % Growth inhibition", "setting": "Renal Cancer, ACHN", "result": "−54.7701", "unit": "%"}, {"measurement": "GIPRCNT: % Growth inhibition", "setting": "Renal Cancer, CAKI-1", "result": 23.14, "unit": "%"}, {"measurement": "GIPRCNT: % Growth inhibition", "setting": "Renal Cancer, RXF 393", "result": 18.75, "unit": "%"}, {"measurement": "GIPRCNT: % Growth inhibition", "setting": "Renal Cancer, SN12C", "result": 31.6819, "unit": "%"}, {"measurement": "GIPRCNT: % Growth inhibition", "setting": "Renal Cancer, TK-10", "result": 57.61, "unit": "%"}, {"measurement": "GIPRCNT: % Growth inhibition", "setting": "Renal Cancer, UO-31", "result": 23.83, "unit": "%"}]}]}
